Patent US20220396565A1 (Hoffmann-La Roche Inc., priority 2020, published 2022)
Structures can show the parent of a compound that is named as a salt.

Test system: Acinetobacter baumannii ATCC17978
Test: Antimicrobial susceptibility testing: 90% growth inhibitory concentration (IC90) determination, Iso-Sensitest broth
Assay type: cell-based
Conditions: 90% growth inhibitory concentration, Acinetobacter baumannii ATCC17978, Iso-Sensitest broth; read-out: ATCC 17978 IC90
In short: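 Growth at OD600 was monitored every 20 min for 16 h at 35±2 °C, with bacteria inoculated at ~5×10^(5) CFU/ml into Iso-Sensitest medium. Compounds were tested as 10-point twofold dilutions (e.g. 10–0.02 μM final). The 90% inhibitory concentration comes from the log-phase growth.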

| IC90 [nM] | Structure (SMILES) |
| --- | --- |
| 100 | Cn1c(-c2ccc(OCC#N)c(F)c2F)cnc1C(=O)Nc1ccc(C(=O)N2CCC(C(=O)N3CCS(=O)(=O)CC3)CC2)c(Cl)c1 [Example 75, N-(3-chloro-4-(4-(1,1-dioxidothiomorpholine-4-carbonyl)piperidine-1-carbonyl)phenyl)-5-(4-(cyanomethoxy)-2,3-difluorophenyl)-1-methyl-1H-imidazole-2-carboxamide] |
| 150 | COc1ccc(-c2cnc(C(=O)Nc3ccc(C(=O)N4CCN(C(=O)C5CCNCC5)CC4)c(C)c3)n2C)c(Cl)c1F [Example 117, 5-(2-chloro-3-fluoro-4-methoxy-phenyl)-1-methyl-N-[3-methyl-4-[4-(piperidine-4-carbonyl)piperazine-1-carbonyl]phenyl]imidazole-2-carboxamide formate] |
| 130 | COc1ccc(-c2cnc(C(=O)Nc3ccc(C(=O)N4CCC(C(=O)N5CCN[C@@H](CO)C5)CC4)c(Cl)c3)n2C)c(Cl)c1F [Example 116, 5-(2-chloro-3-fluoro-4-methoxy-phenyl)-N-[3-chloro-4-[4-[(3R)-3-(hydroxymethyl)piperazine-1-carbonyl]piperidine-1-carbonyl]phenyl]-1-methyl-imidazole-2-carboxamide] |
| 1520 | CCc1cc(NC(=O)c2ncc(-c3ccc(OC(F)F)cc3)n2C)ccc1C(=O)N1CCN(CCN(C)C)CC1 [Example 275, 5-[4-(difluoromethoxy)phen-yl]-N-[4-[4-[2-(dimethylamino)ethyl]piperazine-1-carbonyl]-3-ethyl-phenyl]-1-methyl-imidazole-2-carboxamide] |
| 70 | CNCC(=O)N1CCN(C(=O)c2ccc(NC(=O)c3ncc(-c4ccc(OC)c(F)c4F)n3C)cc2Cl)CC1 [Example 105, N-[3-chloro-4-[4-[2-(methylamino)acetyl]piperazine-1-carbonyl]phenyl]-5-(2,3-difluoro-4-methoxy-phenyl)-1-methyl-imidazole-2-carboxamide trifluoroacetate] |
| 70 | Cn1c(-c2ccc(OCC#N)c(F)c2F)cnc1C(=O)Nc1ccc(C(=O)N2CCC(C(=O)N3CCN[C@@H](CO)C3)CC2)c(Cl)c1 [Example 81, (R)-N-(3-chloro-4-(4-(3-(hydroxymethyl)piperazine-1-carbonyl)piperidine-1-carbonyl)phenyl)-5-(4-(cyanomethoxy)-2,3-difluorophenyl)-1-methyl-1H-imidazole-2-carboxamide 2,2,2-trifluoroacetate] |
| 2300 | CCc1cc(NC(=O)c2ncc(-c3ccc(OC)cc3Cl)n2C)ccc1C(=O)N1CCN(CCN(C)C)CC1 [Example 277, 5-(2-chloro-4-methoxyphenyl)-N-(4-(4-(2-(dimethylamino)ethyl)piperazine-1-carbonyl)-3-ethylphenyl)-1-methyl-1H-imidazole-2-carboxamide] |
| 40 | Cn1c(-c2ccc(OCC#N)c(F)c2F)cnc1C(=O)Nc1ccc(C(=O)N2CCN(C(=O)[C@@H]3CCNC3)CC2)c(Cl)c1 [Example 199, (R)-N-(3-chloro-4-(4-(pyrrolidine-3-carbonyl)piperazine-1-carbonyl)phenyl)-5-(4-(cyanomethoxy)-2,3-difluorophenyl)-1-methyl-1H-imidazole-2-carboxamide 2,2,2-trifluoroacetate] |
| 40 | CN(C)CC(=O)N1CCN(C(=O)c2ccc(NC(=O)c3ncc(-c4ccc(OCC#N)c(F)c4F)n3C)cc2Cl)CC1 [Example 204, N-(3-chloro-4-(4-(dimethylglycyl)piperazine-1-carbonyl)phenyl)-5-(4-(cyanomethoxy)-2,3-difluorophenyl)-1-methyl-1H-imidazole-2-carboxamide formate] |
| 100 | COc1ccc(-c2cnc(C(=O)Nc3ccc(C(=O)N4CCN(C(=O)[C@@H]5C[C@@H](O)CN5)CC4)c(Cl)c3)n2C)c(F)c1F [Example 106, N-[3-chloro-4-[4-[(2S,4R)-4-hydroxypyrrolidine-2-carbonyl]piperazine-1-carbonyl]phenyl]-5-(2,3-difluoro-4-methoxy-phenyl)-1-methyl-imidazole-2-carboxamide trifluoroacetate] |
| 4020 | CCc1cc(NC(=O)c2ncc(-c3ccc(OC(C)C)c(F)c3)n2C)ccc1C(=O)N1CCN(CCN(C)C)CC1 [Example 276, N-(4-(4-(2-(dimethylamino)ethyl)piperazine-1-carbonyl)-3-ethylphenyl)-5-(3-fluoro-4-isopropoxyphenyl)-1-methyl-1H-imidazole-2-carboxamide] |
| 80 | COc1ccc(-c2cnc(C(=O)Nc3ccc(C(=O)N4CCN(C(=O)C5(O)CCNCC5)CC4)c(Cl)c3)n2C)c(Cl)c1F [Example 113, 5-(2-chloro-3-fluoro-4-methoxy-phenyl)-N-[3-chloro-4-[4-(4-hydroxypiperidine-4-carbonyl)piperazine-1-carbonyl]phenyl]-1-methyl-imidazole-2-carboxamide formate] |
| 80 | COc1ccc(-c2cnc(C(=O)Nc3ccc(C(=O)N4CCN(C(=O)[C@@H]5C[C@H](O)CN5)CC4)c(Cl)c3)n2C)c(F)c1F [Example 107, N-[3-chloro-4-[4-[(2S,4S)-4-hydroxypyrrolidine-2-carbonyl]piperazine-1-carbonyl]phenyl]-5-(2,3-difluoro-4-methoxy-phenyl)-1-methyl-imidazole-2-carboxamide trifluoroacetate] |
| 70 | COc1ccc(-c2cnc(C(=O)Nc3ccc(C(=O)N4CCN(C(=O)CN(C)C)CC4)c(Cl)c3)n2C)c(F)c1F [Example 104, N-[3-chloro-4-[4-[2-(dimethylamino)acetyl]piperazine-1-carbonyl]phenyl]-5-(2,3-difluoro-4-methoxy-phenyl)-1-methyl-imidazole-2-carboxamide trifluoroacetate] |
| 60 | Cn1c(-c2ccc(OCC#N)c(F)c2F)cnc1C(=O)Nc1ccc(C(=O)N2CCC(C(=O)N3CCOC(CN)C3)CC2)c(Cl)c1 (centres unmarked) [Example 73, N-(4-(4-(2-(aminomethyl)morpholine-4-carbonyl)piperidine-1-carbonyl)-3-chlorophenyl)-5-(4-(cyanomethoxy)-2,3-difluorophenyl)-1-methyl-1H-imidazole-2-carboxamide 2,2,2-trifluoroacetate] |
| 50 | Cn1c(-c2ccc(OCC#N)c(F)c2F)cnc1C(=O)Nc1ccc(C(=O)N2CCN(C(=O)[C@@H]3C[C@H](O)CN3)CC2)c(Cl)c1 [Example 201, N-(3-chloro-4-(4-((2S,4S)-4-hydroxypyrrolidine-2-carbonyl)piperazine-1-carbonyl)phenyl)-5-(4-(cyanomethoxy)-2,3-difluorophenyl)-1-methyl-1H-imidazole-2-carboxamide formate] |
| 170 | Cc1cc(NC(=O)c2ncc(-c3ccc(OCC#N)c(F)c3F)n2C)ccc1C(=O)N1CCC(C(=O)N2CCS(=O)(=O)CC2)CC1 [Example 77, 5-(4-(cyanomethoxy)-2,3-difluorophenyl)-N-(4-(4-(1,1-dioxidothiomorpholine-4-carbonyl)piperidine-1-carbonyl)-3-methylphenyl)-1-methyl-1H-imidazole-2-carboxamide] |
| 50 | CN(C)CCN1CCN(C(=O)c2ccc(NC(=O)c3ncc(-c4ccc(OCC#N)c(F)c4Cl)n3C)cc2Cl)CC1 [Example 270, 5-[2-chloro-4-(cyanomethoxy)-3-fluoro-phenyl]-N-[3-chloro-4-[4-[2-(dimethylamino)ethyl]piperazine-1-carbonyl]phenyl]-1-methyl-imidazole-2-carboxamide] |
| 60 | CNCC(=O)N1CCN(C(=O)c2ccc(NC(=O)c3ncc(-c4ccc(OCC#N)c(F)c4F)n3C)cc2Cl)CC1 [Example 205, N-(3-chloro-4-(4-(methylglycyl)piperazine-1-carbonyl)phenyl)-5-(4-(cyanomethoxy)-2,3-difluorophenyl)-1-methyl-1H-imidazole-2-carboxamide formate] |
| 5700 | CCc1cc(NC(=O)c2ncc(-c3ccc(OC)c(F)c3F)n2C)ccc1C(=O)N1CCC(Cc2nc(C3CCC3)no2)CC1 [Example 27, N-[4-[4-[(3-cyclobutyl-1,2,4-oxadiazol-5-yl)methyl]piperidine-1-carbonyl]-3-ethyl-phenyl]-5-(2,3-difluoro-4-methoxy-phenyl)-1-methyl-imidazole-2-carboxamide] |
| 70 | Cn1c(-c2ccc(OCC#N)c(F)c2F)cnc1C(=O)Nc1ccc(C(=O)N2CCC(C(=O)N3CC[C@@H](N)C3)CC2)c(Cl)c1 [Example 80, (R)-N-(4-(4-(3-aminopyrrolidine-1-carbonyl)piperidine-1-carbonyl)-3-chlorophenyl)-5-(4-(cyanomethoxy)-2,3-difluorophenyl)-1-methyl-1H-imidazole-2-carboxamide formate] |

Same assay, conditions: Acinetobacter baumannii, ATCC17978, read-out: ATCC 17978 IC90

| Structure (SMILES) | IC90 [nM] |
| --- | --- |
| Cn1c(-c2ccc(OCC#N)c(F)c2F)cnc1C(=O)Nc1ccc(C(=O)N2CCN(C(=O)[C@H]3CCCN3)CC2)c(Cl)c1 [Example 197, (R)-N-(3-chloro-4-(4-prolylpiperazine-1-carbonyl)phenyl)-5-(4-(cyanomethoxy)-2,3-difluorophenyl)-1-methyl 1H-imidazole-2-carboxamide 2,2,2-trifluoroacetate] | 70 |
| Cn1c(-c2ccc(OCC#N)c(F)c2F)cnc1C(=O)Nc1ccc(C(=O)N2CCN(C(=O)[C@H]3CCNC3)CC2)c(Cl)c1 [Example 200, (S)-N-(3-chloro-4-(4-(pyrrolidine-3-carbonyl)piperazine-1-carbonyl)phenyl)-5-(4-(cyanomethoxy)-2,3-difluorophenyl)-1-methyl 1H-imidazole-2-carboxamide 2,2,2-trifluoroacetate] | 50 |
